Several values for one entry are separate records, joined by “and”; a condition that tells them apart may be missing. Equal entries are not always repeated. Activity calls are given as the source filed them. No cut-off for these calls is given here.
Legend:
Rattus norvegicus [1] = assay: Anti-inflammatory activity in orally dosed Wistar rat assessed as reduction of carrageenan-induced paw edema; type: functional; settings: po; for Inhibition: 30 mg/kg
[2] = AUC in Wistar rat at 100 mg/kg, po; type: ADME, organism-based; set-up: dose 100 mg/kg, route oral; settings: plasma
[3] = AUC (0-infinity) in Wistar rat at 100 mg/kg, po; type: ADME, organism-based; set-up: time infinity, dose 100 mg/kg, route oral; settings: plasma
[4] = Tmax in Wistar rat at 100 mg/kg, po; type: ADME, organism-based; set-up: dose 100 mg/kg, route oral; settings: in vivo
[5] = target: Prostaglandin G/H synthase 1 (Ovis aries) (UniProt P05979); assay: Inhibition of microsomal COX1 at 10 uM
Prostaglandin G/H synthase 1 (Ovis aries), sequence (P05979 whole entry, looked up): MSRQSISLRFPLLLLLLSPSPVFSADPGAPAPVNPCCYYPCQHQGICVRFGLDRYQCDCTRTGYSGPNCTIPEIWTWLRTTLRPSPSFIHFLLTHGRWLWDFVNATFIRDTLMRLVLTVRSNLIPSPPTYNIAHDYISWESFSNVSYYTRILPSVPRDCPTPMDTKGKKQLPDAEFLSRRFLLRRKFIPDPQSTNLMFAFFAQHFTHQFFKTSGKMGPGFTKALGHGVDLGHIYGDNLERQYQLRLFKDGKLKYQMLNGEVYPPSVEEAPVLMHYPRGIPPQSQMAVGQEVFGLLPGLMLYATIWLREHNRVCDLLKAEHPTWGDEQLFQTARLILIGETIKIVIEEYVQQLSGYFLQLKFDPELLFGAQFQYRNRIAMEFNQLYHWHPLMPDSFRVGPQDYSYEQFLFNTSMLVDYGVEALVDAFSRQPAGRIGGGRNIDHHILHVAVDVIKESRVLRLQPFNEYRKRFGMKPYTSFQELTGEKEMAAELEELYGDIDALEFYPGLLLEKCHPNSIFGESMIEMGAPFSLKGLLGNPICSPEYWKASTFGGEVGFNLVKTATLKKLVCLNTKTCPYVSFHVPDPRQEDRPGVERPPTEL

[6] = target: T1, Prostaglandin G/H synthase 2 (Homo sapiens) (UniProt P35354); assay: Inhibition of human recombinant COX2 expressed in sf9 cells infected with baculovirus at 10 uM
T1 sequence (whole entry): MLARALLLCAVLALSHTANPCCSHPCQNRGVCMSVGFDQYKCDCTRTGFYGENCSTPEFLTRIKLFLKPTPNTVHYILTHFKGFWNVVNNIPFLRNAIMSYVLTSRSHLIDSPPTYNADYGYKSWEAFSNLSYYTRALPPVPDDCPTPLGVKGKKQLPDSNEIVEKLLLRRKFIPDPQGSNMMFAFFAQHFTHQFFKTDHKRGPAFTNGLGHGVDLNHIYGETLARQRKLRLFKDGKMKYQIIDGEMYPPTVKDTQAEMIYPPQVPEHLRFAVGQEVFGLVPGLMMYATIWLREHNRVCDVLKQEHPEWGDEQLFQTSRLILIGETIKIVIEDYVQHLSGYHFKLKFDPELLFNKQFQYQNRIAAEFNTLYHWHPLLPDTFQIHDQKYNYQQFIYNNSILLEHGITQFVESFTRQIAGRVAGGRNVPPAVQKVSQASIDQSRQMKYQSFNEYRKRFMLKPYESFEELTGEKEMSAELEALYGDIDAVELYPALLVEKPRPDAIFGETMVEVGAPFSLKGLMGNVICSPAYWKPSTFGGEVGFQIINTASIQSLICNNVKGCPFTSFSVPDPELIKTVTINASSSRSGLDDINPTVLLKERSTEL

[7] = Terminal half life in Wistar rat at 100 mg/kg, po; type: ADME, organism-based; set-up: dose 100 mg/kg, route oral; settings: in vivo
[8] = Cmax in Wistar rat at 100 mg/kg, po; type: ADME, organism-based; set-up: dose 100 mg/kg, route oral; settings: in vivo
Rattus norvegicus [9] = assay: Anti-inflammatory activity in orally dosed Wistar rat assessed as reduction of carrageenan-induced paw edema at 30 mg/kg, po; type: functional
Rattus norvegicus [10] = assay: Anti-inflammatory activity in orally dosed Wistar rat assessed as reduction of carrageenan-induced paw edema at 1 mg/kg, po; type: functional, organism-based; set-up: dose 1 mg/kg
Rattus norvegicus [11] = assay: Anti-inflammatory activity in orally dosed Wistar rat assessed as reduction of carrageenan-induced paw edema at 3 mg/kg, po; type: functional, organism-based; set-up: dose 3 mg/kg
Rattus norvegicus [12] = assay: Anti-inflammatory activity in orally dosed Wistar rat assessed as reduction of carrageenan-induced paw edema at 10 mg/kg, po; type: functional, organism-based; set-up: dose 10 mg/kg
Rattus norvegicus [13] = assay: Anti-inflammatory activity in orally dosed Wistar rat assessed as reduction of carrageenan-induced paw edema at 0.3 mg/kg, po; type: functional

Structure (SMILES)	inhibition [5]	inhibition [6]	ED50 (Rattus norvegicus [1]) [mg/kg]	inhibition at 30 mg/kg (Rattus norvegicus [9]) [%]	further results
CCC(=O)[N-]S(=O)(=O)c1ccc(-n2nc(C(F)(F)F)cc2-c2ccc(Br)cc2)cc1COC(=O)CC.[Na+]			12.5		
NS(=O)(=O)c1ccc(-n2nc(C(F)(F)F)cc2-c2ccc3c(c2)CCO3)cc1CO			22.3		
CCC(=O)[N-]S(=O)(=O)c1ccc(-n2nc(C(F)F)cc2-c2ccc(OC)c(C)c2)cc1CO.[Na+]	0%	13%	6.3		AUC [2]: 106 µg·h/mL; AUC(0-inf) [3]: 114 µg·h/mL; Tmax [4]: 2.82 h; half-life [7]: 5.92 h; Cmax [8]: 7540 ng/mL
CCC(=O)NS(=O)(=O)c1ccc(-n2nc(C(F)(F)F)cc2-c2ccc(Br)cc2)cc1COC(=O)CC [listing 1 of 2 here]	0%	25% and 35%			
CCC(=O)NS(=O)(=O)c1ccc(-n2nc(C(F)(F)F)cc2-c2ccc(SC)cc2)cc1COC(=O)CC [listing 1 of 2 here]				38	
CCC(=O)NS(=O)(=O)c1ccc(-n2nc(C(F)(F)F)cc2-c2ccc(OC)c(C)c2)cc1COC(=O)CC [listing 1 of 2 here]				48	
CCC(=O)NS(=O)(=O)c1ccc(-n2nc(C(F)(F)F)cc2-c2ccc3c(c2)CCO3)cc1COC(=O)CC [listing 1 of 2 here]				25	
NS(=O)(=O)c1ccc(-n2nc(C(F)(F)F)cc2-c2ccc3c(c2)CCC3)cc1CO			23.5		
CCC(=O)NS(=O)(=O)c1ccc(-n2nc(C(F)(F)F)cc2-c2ccc(Br)cc2)cc1COC(=O)CC [listing 2 of 2 here]				37	
CCC(=O)NS(=O)(=O)c1ccc(-n2nc(C(F)F)cc2-c2ccc(OC)c(C)c2)cc1COC(=O)CC [listing 1 of 2 here]	0%				
COc1ccc(-c2cc(C(F)(F)F)nn2-c2ccc(S(N)(=O)=O)c(CO)c2)cc1C			21.7		AUC [2]: 73.7 µg·h/mL; AUC(0-inf) [3]: 112 µg·h/mL; Tmax [4]: 3.5 h; half-life [7]: 6.63 h; Cmax [8]: 6370 ng/mL
COc1ccc(-c2cc(C(F)F)nn2-c2ccc(S(N)(=O)=O)c(CO)c2)cc1C			18.5		AUC [2]: 2.4 µg·h/mL; Tmax [4]: 2.25 h; Cmax [8]: 700 ng/mL
CCC(=O)[N-]S(=O)(=O)c1ccc(-n2nc(C(F)(F)F)cc2-c2ccc(SC)cc2)cc1COC(=O)CC.[Na+]				40	
CCC(=O)[N-]S(=O)(=O)c1ccc(-n2nc(C(F)(F)F)cc2-c2ccc(OC)c(C)c2)cc1COC(=O)CC.[Na+]				34	
CCC(=O)[N-]S(=O)(=O)c1ccc(-n2nc(C(F)(F)F)cc2-c2ccc3c(c2)CCO3)cc1COC(=O)CC.[Na+]				43	
CSc1ccc(-c2cc(C(F)(F)F)nn2-c2ccc(S(N)(=O)=O)c(CO)c2)cc1				47	

Structure (SMILES)	inhibition [5]	inhibition [6]	ED50 (Rattus norvegicus [1]) [mg/kg]	inhibition at 30 mg/kg (Rattus norvegicus [9]) [%]	further results
NS(=O)(=O)c1ccc(-n2nc(C(F)F)cc2-c2ccc(Br)cc2)cc1CO				42	AUC [2]: 239 µg·h/mL; AUC(0-inf) [3]: 265 µg·h/mL; Tmax [4]: 2.67 h; half-life [7]: 7.51 h; Cmax [8]: 20800 ng/mL
Cc1ccc(-c2cc(C(F)(F)F)nn2-c2ccc(S(N)(=O)=O)cc2)cc1 [CELECOXIB]			6.7		
CCC(=O)[N-]S(=O)(=O)c1ccc(-c2c(-c3ccccc3)noc2C)cc1.[Na+] [PARECOXIB SODIUM]					inhibition at 0.3 mg/kg (Rattus norvegicus [13]): 98%
NS(=O)(=O)c1ccc(-n2nc(C(F)(F)F)cc2-c2ccc(Br)cc2)cc1CO				35	
CCC(=O)[N-]S(=O)(=O)c1ccc(-n2nc(C(F)F)cc2-c2ccc(OC)c(C)c2)cc1COC(=O)CC.[Na+]				32	
CCC(=O)[N-]S(=O)(=O)c1ccc(-n2nc(C(F)(F)F)cc2-c2ccc(SC)cc2)cc1CO.[Na+]	0%	21%		36	
CCC(=O)OCc1cc(-n2nc(C(F)(F)F)cc2-c2ccc3c(c2)CCC3)ccc1S(N)(=O)=O	0%	57%		30	
CCC(=O)NS(=O)(=O)c1ccc(-n2nc(C(F)(F)F)cc2-c2ccc3c(c2)CCC3)cc1COC(=O)CC [listing 2 of 2 here]					Inhibition (Rattus norvegicus [1]): 64%
CCC(=O)NS(=O)(=O)c1ccc(-n2nc(C(F)F)cc2-c2ccc(Br)cc2)cc1COC(=O)CC [listing 2 of 2 here]				45	
CCC(=O)[N-]S(=O)(=O)c1ccc(-n2nc(C(F)(F)F)cc2-c2ccc(OC)c(C)c2)cc1CO.[Na+]	0%	15%	6.2		AUC [2]: 125 µg·h/mL; AUC(0-inf) [3]: 149 µg·h/mL; Tmax [4]: 3.78 h; half-life [7]: 6.82 h; Cmax [8]: 9320 ng/mL
CCC(=O)OCc1cc(-n2nc(C(F)(F)F)cc2-c2ccc(Br)cc2)ccc1S(N)(=O)=O	0%	65%	17		
CCC(=O)NS(=O)(=O)c1ccc(-n2nc(C(F)F)cc2-c2ccc(OC)c(C)c2)cc1COC(=O)CC [listing 2 of 2 here]				42	
CCC(=O)[N-]S(=O)(=O)c1ccc(-n2nc(C(F)(F)F)cc2-c2ccc3c(c2)CCC3)cc1COC(=O)CC.[Na+]				41	
CCC(=O)[N-]S(=O)(=O)c1ccc(-n2nc(C(F)F)cc2-c2ccc(Br)cc2)cc1COC(=O)CC.[Na+]			7.9		
CCC(=O)OCc1cc(-n2nc(C(F)F)cc2-c2ccc(OC)c(C)c2)ccc1S(N)(=O)=O	0%	75%	15		

Continued, in another order:

inhibition [5]	inhibition [6]	Structure (SMILES)	ED50 (Rattus norvegicus [1]) [mg/kg]	inhibition at 30 mg/kg (Rattus norvegicus [9]) [%]	further results
0%	2%	CCCC(=O)[N-]S(=O)(=O)c1ccc(-n2nc(C(F)(F)F)cc2-c2ccc(C)cc2)cc1.[Na+]	6.64		
0%	10% and 5%	CCC(=O)NS(=O)(=O)c1ccc(-n2nc(C(F)(F)F)cc2-c2ccc(OC)c(C)c2)cc1COC(=O)CC [listing 2 of 2 here]			
0%	61%	CCC(=O)OCc1cc(-n2nc(C(F)(F)F)cc2-c2ccc3c(c2)CCO3)ccc1S(N)(=O)=O	8.5		
0%	14%	CCC(=O)[N-]S(=O)(=O)c1ccc(-n2nc(C(F)F)cc2-c2ccc(Br)cc2)cc1CO.[Na+]	5.6		AUC [2]: 289 µg·h/mL; AUC(0-inf) [3]: 321 µg·h/mL; Tmax [4]: 2.85 h; half-life [7]: 7.42 h; Cmax [8]: 28400 ng/mL
5%	55%	CCC(=O)OCc1cc(-n2nc(C(F)F)cc2-c2ccc(Br)cc2)ccc1S(N)(=O)=O		40	
0%		CCC(=O)NS(=O)(=O)c1ccc(-n2nc(C(F)(F)F)cc2-c2ccc3c(c2)CCC3)cc1COC(=O)CC [listing 1 of 2 here]			Activity (Rattus norvegicus [10]): inactive; Activity (Rattus norvegicus [11]): inactive; Activity (Rattus norvegicus [12]): inactive
0%	23%	CCC(=O)[N-]S(=O)(=O)c1ccc(-n2nc(C(F)(F)F)cc2-c2ccc(Br)cc2)cc1CO.[Na+]	7.2		
0%	22%	CCC(=O)[N-]S(=O)(=O)c1ccc(-n2nc(C(F)(F)F)cc2-c2ccc3c(c2)CCC3)cc1CO.[Na+]			Activity (Rattus norvegicus [10]): inactive; Activity (Rattus norvegicus [11]): inactive; Activity (Rattus norvegicus [12]): inactive; Inhibition (Rattus norvegicus [1]): 52%
0%	18% and 25%	CCC(=O)NS(=O)(=O)c1ccc(-n2nc(C(F)(F)F)cc2-c2ccc(SC)cc2)cc1COC(=O)CC [listing 2 of 2 here]			
0% and 1%	12% and 25%	CCC(=O)NS(=O)(=O)c1ccc(-n2nc(C(F)F)cc2-c2ccc(Br)cc2)cc1COC(=O)CC [listing 1 of 2 here]			
0%	2% and 12%	CCC(=O)NS(=O)(=O)c1ccc(-n2nc(C(F)(F)F)cc2-c2ccc3c(c2)CCO3)cc1COC(=O)CC [listing 2 of 2 here]			
12%		CCC(=O)OCc1cc(-n2nc(C(F)(F)F)cc2-c2ccc(OC)c(C)c2)ccc1S(N)(=O)=O	10.9		
0%	40%	CCC(=O)OCc1cc(-n2nc(C(F)(F)F)cc2-c2ccc(SC)cc2)ccc1S(N)(=O)=O			Activity (Rattus norvegicus [10]): inactive; Activity (Rattus norvegicus [11]): inactive; Activity (Rattus norvegicus [12]): inactive; Inhibition (Rattus norvegicus [1]): 60%
5%	25%	CCC(=O)[N-]S(=O)(=O)c1ccc(-n2nc(C(F)(F)F)cc2-c2ccc3c(c2)CCO3)cc1CO.[Na+]	7.5		

Reference: ChEMBL document CHEMBL1146031, “N-acylated sulfonamide sodium salt: a prodrug of choice for the bifunctional 2-hydroxymethyl-4-(5-phenyl-3-trifluoromethyl-pyrazol-1-yl) benzenesulfonamide class of COX-2 inhibitors” (Bioorg Med Chem Lett, 2006)
